Measurements published in patent US20040082662A1, “Polyisoprenylbenzophenone derivatives, processes for their preparation and use thereof” (Aventis Pharma Deutschland Gmbh, priority 2002, published 2004).

Experiments:
Staphylococcus aureus = assay: Test of the antibacterial activity (agar plate, antibiotic test sheets, inhibition halo); format: cell-based; conditions: 16 hours at 37° C.
Protocol: For the test of the antibacterial action, agar plates containing 2 ml of Staphylococcus aureus sowing in 200 ml of agar solution were firstly prepared. Makandechamone was applied in a 1 mg/ml solution to antibiotic test sheets (Schleicher and Schüll) having a diameter of 6 mm and placed on the agar plate. The inoculated Staphylococcus plates were incubated for 16 hours at 37° C. Inhibition halos having the following diameters (mm) were then observed: […]

[1] = Solubility (physicochemical properties)
Text: (§1) Stable in neutral and acidic medium.

[2] = Stability (physicochemical properties); conditions: neutral and acidic medium
Text: as §1

[3] = tested on: certain bee-pathogenic bacteria; conditions: cited from earlier work
HIV = conditions: cited from earlier work

With `C=C1CC(C)(C)CCC1CC12CC(CC=C(C)C)C(C)(C)C(C(=O)c3ccccc3)(C1=O)C(O)=C(CC=C(C)C)C2=O` (stereo not drawn) [makandechamone] the Inhibition halo size (Staphylococcus aureus; 10 μl of 1 mg/ml solution on 6 mm test sheet) was 7 mm, the Inhibition halo size (Staphylococcus aureus; 20 μl of 1 mg/ml solution on 6 mm test sheet) was 12 mm and the Inhibition halo size (Staphylococcus aureus; 40 μl of 1 mg/ml solution on 6 mm test sheet) was 14 mm. For the same compound, the “Solubility in medium polar and polar organic solvents” value ([1]; medium polar and polar organic solvents) was “soluble”, the Solubility in water ([1]; water) was “not very soluble” and the Stability [2] was “Stable”.
For chamone I, the “Activity against certain bee-pathogenic bacteria” value [3] is given as “active”.
In the case of guttiferone F, the HIV-inhibitory action (HIV) is listed as “HIV-inhibitory action”.
In the case of nemorosome II, the “Activity against certain bee-pathogenic bacteria” value [3] is listed as “active”.
